This note sets out measurements from patent US8778966B2, “Quinolinone derivatives as PARP and tank inhibitors” (Janssen Pharmaceutica, NV, priority 2007, dated 2014).

The subject of one data set is tubulin. Nature of the data set: Tubulin polymerization assay. It counts as biochemical. Further details: key: a compound showing 0 to 50% inhibition at 20 μM is reported as score 1; Score 2 compounds are defined as compound showing more than 50% inhibition at 20 μM and less than 50% inhibition at 5 μM; a compound showing more than 50% inhibition at 5 μM is reported as score 3. The following applies: tested at 20 μM and 5 μM. In a few lines:
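Cytoskeleton kit tubulin was run in a 10 µl final volume at 37 °C, with fluorescence read every minute for 1 h. Polymerization was taken as the maximum slope (4-point linear regression) and expressed as % of no-compound control. Compounds were tested at 20 µM, then at 5 µM if inhibition exceeded 50%, and scored by % inhibition.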

For the next data set, the target named is T1, TANK-2 enzyme (Homo sapiens, UniProt Q9H2K2).
T1 construct: made in house
T1 sequence (Q9H2K2 1-1166): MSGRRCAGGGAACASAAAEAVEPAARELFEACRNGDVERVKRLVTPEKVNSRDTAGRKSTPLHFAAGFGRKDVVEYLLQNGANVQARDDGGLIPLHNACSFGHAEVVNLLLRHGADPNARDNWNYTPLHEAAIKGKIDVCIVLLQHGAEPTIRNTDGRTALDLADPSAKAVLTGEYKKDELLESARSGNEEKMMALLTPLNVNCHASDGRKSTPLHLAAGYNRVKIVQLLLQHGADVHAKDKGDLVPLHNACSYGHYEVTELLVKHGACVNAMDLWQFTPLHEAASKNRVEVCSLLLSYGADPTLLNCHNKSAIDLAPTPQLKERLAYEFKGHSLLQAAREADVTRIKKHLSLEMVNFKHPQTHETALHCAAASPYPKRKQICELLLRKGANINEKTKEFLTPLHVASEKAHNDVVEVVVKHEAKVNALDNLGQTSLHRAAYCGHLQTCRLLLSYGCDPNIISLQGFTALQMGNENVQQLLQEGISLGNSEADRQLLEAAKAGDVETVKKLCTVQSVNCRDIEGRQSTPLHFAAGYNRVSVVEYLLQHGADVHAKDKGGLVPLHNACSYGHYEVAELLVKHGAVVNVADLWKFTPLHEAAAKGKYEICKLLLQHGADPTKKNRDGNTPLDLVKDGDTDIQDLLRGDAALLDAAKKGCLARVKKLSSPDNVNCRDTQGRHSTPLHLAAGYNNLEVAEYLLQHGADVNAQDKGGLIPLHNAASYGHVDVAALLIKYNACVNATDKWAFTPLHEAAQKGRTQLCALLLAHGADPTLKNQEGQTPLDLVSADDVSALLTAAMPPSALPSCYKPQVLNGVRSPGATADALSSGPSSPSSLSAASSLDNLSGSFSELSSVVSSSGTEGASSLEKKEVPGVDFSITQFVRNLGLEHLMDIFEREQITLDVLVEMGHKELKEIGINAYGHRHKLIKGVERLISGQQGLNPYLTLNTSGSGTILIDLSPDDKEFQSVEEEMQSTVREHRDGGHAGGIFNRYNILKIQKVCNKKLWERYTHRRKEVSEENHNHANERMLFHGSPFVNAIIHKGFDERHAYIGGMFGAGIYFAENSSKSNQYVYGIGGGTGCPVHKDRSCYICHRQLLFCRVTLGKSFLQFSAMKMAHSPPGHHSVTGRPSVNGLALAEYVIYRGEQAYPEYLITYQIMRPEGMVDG
Description: In vitro Scintillation Proximity Assay (SPA) for TANK-2 inhibitory activity. The following applies: read-out: in vitro SPA assay TANK-2 pIC50 (converted). It counts as biochemical. In a few lines:
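TANK-2 (8 μg/ml final) auto-poly(ADP-ribosyl)ation with [3H]-NAD+/NAD donor was run in Ni flash plates in Tris/HCl pH 7.4 buffer with DTT and MgCl2, 120 min at room temperature, then stopped with excess NAD and scintillation-counted. Blank-corrected cpm was expressed as % of enzyme control, and IC50 was linearly interpolated and reported as pIC50.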
For orientation: In a scintillation proximity assay essentially only radioactivity close to the scintillant gives light.

What is called melting point is the temperature of the solid-liquid transition. Consider `CCc1cc2ccc([C@@](C)(C#N)CN(C)Cc3ccc(C#N)cc3)cc2[nH]c1=O` (single isomer, unassigned) [Compound 253], for which the melting point was found to be 116 °C. This compound yielded a tubulin polymerisation score in the data set with tubulin of 2. Moreover, the IC50 at TANK-2 enzyme was 200 nM.
With `CCc1cc2cc(C)c(C(C)(C#N)Cc3cccc(C#N)n3)cc2[nH]c1=O` (centres unmarked) [Compound 208], the melting point was greater than 250 °C. The IC50 on TANK-2 enzyme was 39.8 nM.
In the same order, the values of `CCc1cc2ccc(C(C)(C#N)Cc3ccc(OC)nc3Cl)cc2[nH]c1=O` (centres unmarked) [Compound 224] are 167 °C and 200 nM.
In the same order, the values of `CCc1cc2ccc(C(C)(C#N)Cc3cccc(OCc4ccccc4)c3)cc2[nH]c1=O` (centres unmarked) [Compound 23] are 150 °C and 200 nM.
Compound `CCc1cc2ccc(C(C)(C#N)Cc3cc(OC)cc(OC)n3)cc2[nH]c1=O` (centres unmarked) [Compound 232] had a melting point of 65 °C. The compound further registered a tubulin polymerisation score in the data set on tubulin of 2. Also, the IC50 on TANK-2 enzyme was 63.1 nM.
As for `CCc1cc2ccc(C(C)(C#N)Cc3cccc(N4CCOCC4)c3)cc2[nH]c1=O` (centres unmarked) [Compound 21], the melting point worked out at 162 °C. Moreover, the IC50 on TANK-2 enzyme was 63.1 nM.
The like results for `CCc1cc2ccc(C(C)(C#N)Cc3cccc(-c4ccccc4)c3)cc2[nH]c1=O` (centres unmarked) [Compound 18] were, in that order, 192 °C and 251 nM.
In the same order, the values of `CCc1cc2ccc(C(C)(C#N)Cc3cc4ccccc4nn3)cc2[nH]c1=O` (centres unmarked) [Compound 238] are 250 °C and 251 nM.
`CCc1cc2ccc(C(C)(C#N)Cc3cc(C#N)cc4c3OCC4)cc2[nH]c1=O` (centres unmarked) [Compound 236] came in with a melting point of 250 °C. The same compound returned a tubulin polymerisation score with tubulin of 2. Moreover, the IC50 at TANK-2 enzyme is 31.6 nM.
`CCc1cc2ccc(C(C)(C#N)Cc3cccc(S(F)(F)(F)(F)F)c3)cc2[nH]c1=O` (centres unmarked) [Compound 177] came in with a melting point of 124 °C. The IC50 at TANK-2 enzyme was 398 nM.
In the case of `CCc1cc2ccc(C(C)(C#N)Cc3cccc(I)c3)cc2[nH]c1=O` (centres unmarked) [Compound 19], the melting point stood at 158 °C. Further, in the data set with tubulin, the tubulin polymerisation score is given as 2. Besides, the IC50 at TANK-2 enzyme was 158 nM.
`CCc1cc2ccc(C(C)(C#N)Cc3ccc(Cl)nc3OC)cc2[nH]c1=O` (centres unmarked) [Compound 225] registered a melting point of 160 °C. Moreover, the tubulin polymerisation score with tubulin was determined as 2. Also, the IC50 on TANK-2 enzyme was 126 nM.
`CCc1cc2ccc(C(C)(C#N)Cc3cccc(OCCOC)c3)cc2[nH]c1=O` (centres unmarked) [Compound 24] had a melting point of 134 °C. For the same compound, the IC50 on TANK-2 enzyme is 79.4 nM.
`COc1cc2ccc(C(C)(C#N)Cc3cccc(C#N)n3)cc2[nH]c1=O` (centres unmarked) [Compound 218] came in with a melting point of 95 °C. In addition, the tubulin polymerisation score with tubulin was 2. For the same compound, on TANK-2 enzyme, the IC50 was 1000 nM.
`CCc1cc2ccc(C(C)(C#N)Cc3cccc(C4(N)CC4)c3)cc2[nH]c1=O` (centres unmarked) [Compound 180] registered a melting point greater than 250 °C. In addition, the IC50 at TANK-2 enzyme is 158 nM.
`CCc1cc2ccc(C(C)(C#N)Cc3cccc(N4CCCC4)n3)cc2[nH]c1=O` (centres unmarked) [Compound 226] displayed a melting point of 155 °C. In addition, in the data set with tubulin, the tubulin polymerisation score was 2. Besides, the IC50 on TANK-2 enzyme was 200 nM.
Turning to `CCc1cc2ccc(C(C)(C#N)Cc3cccc(N(C)C)c3)cc2[nH]c1=O` (centres unmarked) [Compound 20], the melting point was 193 °C. Further, the IC50 at TANK-2 enzyme was 63.1 nM.
